# Results taken from patent US20080027129A1 (L'OREAL, priority 2006, published 2008).
# Where two headings read alike, the source gives them in different places.
# Experiments:
# [1] = tested on: GSH; settings: described in the literature; cited from earlier work
# [2] = tested on: normal human melanocytes (NHM); assay: reactive oxygen species (ROS) generated by an H2O2 stress in cultured normal human melanocytes; format: cell-based; settings: NHM pretreated 12 h/18 h with compound, H2DCFDA 10 μM, H2O2 250 μM, read after 15 minutes; FIG. 1
# Procedure: Protocol for measuring the reactive oxygen species (ROS) generated by an H2O2 stress in cultured normal human melanocytes (NHM)
# The normal human melanocytes (NHMs) were inoculated at D0 at the density of 4×10^4 cells/cm^2. […] After 20 minutes, the H2DCFDA solution was replaced with the culture medium. The NHMs were left for 30 minutes before adding the H2O2 solution (250 μM). The fluorescence was measured after 15 minutes in a fluoroscan (excitation: 485 nm, emission: 538 nm).
# The compounds studied were used depending on their properties (concentration, preincubation time). N-Acetylcysteine (A9165-Sigma) was used as a reference molecule. The melanocytes were pretreated, 12 h/18 h at 37° C., with the compound studied in the culture medium, before being brought into contact for 20 minutes with H2DCFDA (10 μM in PBS). The H2DCFDA solution was then replaced with the culture medium containing the active agent studied. After incubating for 30 minutes the oxidative stress was induced by addition of 250 μM of H2O2 in the culture medium. The fluorescence was measured after 15 minutes in a fluoroscan (excitation: 485 nm, emission: 538 nm).
# The results represent the crude fluorescence data, from which the auto-fluorescence values of “blank” cells, expressed in fluorescence units (fu), obtained during a representative experiment, have been deducted, see FIG. 1.
# [3] = tested on: normal human melanocytes (NHMs); assay: viability of cultured normal human melanocytes after a dopamine stress (Alamar Blue); format: cell-based; set-up: cell viability after dopamine stress: scale not given here; settings: for viability at 200 µM: Homo sapiens, Melanocyte, compound 200 μM, read-out: cell viability after dopamine stress; for viability at 200 µM / cell viability after dopamine stress: D3, Alamar Blue
# Procedure: 1-C-1. Effect of 3H-1,2-dithiole-3-thione (D3T) on the Viability of Cultured Normal Human Melanocytes (NHMs) After a Dopamine Stress:
# The normal human melanocytes (NHMs) were inoculated at DO at the density of 1×10^4 cells/cm^2. After adhesion of the cells (3 h), the active agent studied was added to the culture medium. After 2 hours, the dopamine was added to the culture medium to begin the stress. At D3, the cell viability was measured using Alamar Blue (UP669413 UPTIMA, Interchim) according to the instructions of the supplier.
molecule,measurement,setting,value
"S=c1ccss1 [D3T, 3H-1,2-dithiole-3-thione]",level of GSH,[1],increasing the level of GSH
same,"reactive oxygen species (ROS) induced by H2O2, fluorescence",[2],decrease of the reactive oxygen species
"CC(=O)N[C@@H](CS)C(=O)O [NAC, N-Acetylcysteine, reference compound]",viability at 200 µM,[3]; dopamine 0.00 μM,100%
same,viability at 200 µM,[3]; dopamine 20.00 μM,102%
same,viability at 200 µM,[3]; dopamine 40.00 μM,102%
same,viability at 200 µM,[3]; dopamine 60.00 μM,99.7%
same,viability at 200 µM,[3]; dopamine 70.00 μM,95.7%
same,viability at 200 µM,[3]; dopamine 80.00 μM,89.4%
same,viability at 200 µM,[3]; dopamine 90.00 μM,77.7%
same,viability at 200 µM,[3]; dopamine 100.00 μM,23.8%
C=CCN=C=S [allyl isothiocyanate],level of GSH,[1],increasing the level of GSH
S=C=NCCc1ccccc1 [phenethyl isothiocyanate],level of GSH,[1],increasing the level of GSH
C[S@@+]([O-])CCCCN=C=S [sulforaphane],level of GSH,[1],increasing the level of GSH
anethole dithiolethione [ADT],survival of the cells under dopamine stress compared with the reference compound,"[3]; FIG. 3, versus N-acetylcysteine",increases the survival of the cells with a better efficiency than N-acetylcysteine
same,cell viability after dopamine stress,"[3]; compound 2 μM, dopamine 0.00 μM",100.00
same,cell viability after dopamine stress,"[3]; compound 2 μM, dopamine 20.00 μM",97.48
same,cell viability after dopamine stress,"[3]; compound 2 μM, dopamine 40.00 μM",100.00
same,cell viability after dopamine stress,"[3]; compound 2 μM, dopamine 60.00 μM",98.74
same,cell viability after dopamine stress,"[3]; compound 2 μM, dopamine 70.00 μM",95.90
same,cell viability after dopamine stress,"[3]; compound 2 μM, dopamine 80.00 μM",92.43
same,cell viability after dopamine stress,"[3]; compound 2 μM, dopamine 90.00 μM",82.02
same,cell viability after dopamine stress,"[3]; compound 2 μM, dopamine 100.00 μM",51.42
same,cell viability after dopamine stress,"[3]; compound 15 μM, dopamine 0.00 μM",100.00
same,cell viability after dopamine stress,"[3]; compound 15 μM, dopamine 20.00 μM",92.68
same,cell viability after dopamine stress,"[3]; compound 15 μM, dopamine 40.00 μM",95.22
same,cell viability after dopamine stress,"[3]; compound 15 μM, dopamine 60.00 μM",95.54
same,cell viability after dopamine stress,"[3]; compound 15 μM, dopamine 70.00 μM",94.90
same,cell viability after dopamine stress,"[3]; compound 15 μM, dopamine 80.00 μM",94.90
same,cell viability after dopamine stress,"[3]; compound 15 μM, dopamine 90.00 μM",87.58
same,cell viability after dopamine stress,"[3]; compound 15 μM, dopamine 100.00 μM",81.21
same,level of GSH,[1],increasing the level of GSH
same,"reactive oxygen species (ROS) induced by H2O2, fluorescence",[2],decrease of the reactive oxygen species
